This passage reports GI50 and TGI results from PubChem BioAssay (NCI).

Common to all, as to test: NCI tumour cell line growth inhibition, 48 h
Experiment [1] concerns 786-0 renal.
The test system of experiment [2] is M14 melanoma.
Experiment [3] relates to NCI-H226 lung.
For experiment [4], the system named is NCI-H23 lung.
Experiment [5] relates to PC-3 prostate.
The test system of experiment [6] is RPMI-8226 leukemia.
Experiment [7] concerns SF-295 CNS.
Experiment [8] concerns SF-539 CNS.
Experiment [9] concerns SK-OV-3 ovarian.
Experiment [10] deals with UO-31 renal.

Where “and” joins values, the source holds several entries; their conditions need not be identical. Equal values may be shown once.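 How tested: cells in 96-well plates exposed to compound for 48 hours at five concentrations. Here, GI50 denotes the concentration required for 50% inhibition of growth. TGI is the concentration that stops growth completely.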

In the case of `O=C1CCC(N2C(=O)c3cccc(NCCCC4CCN(CCNC(=O)c5cc6c(o5)C(=O)c5ccccc5C6=O)CC4)c3C2=O)C(=O)N1` (stereo not given), the GI50 in experiment [1] was 1.44 µM; in [2] it was 0.161 µM; in experiment [3] it was 1.42 µM; in [4], 0.159 µM; in [5], 0.976 µM; in [6], 1.7 µM. In addition, the GI50 in experiment [7] was 0.252 µM; in [8], 1.32 µM; in [9] it was 2.88 µM; in experiment [10], 1.37 µM. In addition, the TGI in [1] is 3.17 µM; in [2], 0.309 µM; in experiment [3] it was 3.76 µM; in [4], 0.399 µM; in [5] it was greater than 76.4 µM; in [6], 20.9 µM. The TGI in [7] was found to be 0.711 µM; in [8] it was 2.59 µM; in experiment [9] it was 8.52 µM; in experiment [10], 2.91 µM.

In the case of `O=C(Nc1ccccc1Cl)c1cccc(NC2=C(Cl)C(=O)N(Cc3ccccc3)C2=O)c1`, the GI50 in experiment [1] was 10.2 µM; in experiment [2], 9.32 µM; in [3], 4.45 µM; in [4] it was 50.5 µM; in experiment [5] it was 18.9 µM; in [6], 3.1 µM. Moreover, the GI50 in experiment [7] is 23.3 µM; in [8], 26.7 µM; in experiment [9] it was greater than 100 µM; in [10] it was 4.91 µM. Further, the TGI in experiment [1] was 60.5 µM; in [2], 29.5 µM; in experiment [3] it was 46.4 µM; in experiment [4], greater than 100 µM; in [5], 99 µM; in experiment [6], 20.6 µM. For the same compound, the TGI in experiment [7] is 92.3 µM; in [8] it was 94.6 µM; in experiment [9], greater than 100 µM; in [10] it was 53.8 µM.

For `COc1ccc2c(c1)/C(=C\c1c[nH]c3ccc(OC)cc13)C(=O)N2`, the GI50 is 5.35 µM in experiment [1]; 1.91 µM in experiment [2]; 4.59 µM in experiment [3]; 4.46 µM in experiment [4]; 3.84 µM in experiment [5]; 2.39 µM in [6]. Also, the GI50 in experiment [7] is 3.67 µM; in [8], 3.95 µM; in experiment [9], 2.58 µM; in experiment [10], 2.53 µM. Moreover, the TGI in experiment [1] was 17.6 µM; in experiment [2], 6.14 µM; in [3], 25.6 µM; in experiment [4], 21 µM; in experiment [5] it was 16.3 µM; in [6], 8.89 µM. The TGI in experiment [7] was determined as 16.8 µM; in [8], 15.6 µM; in [9] it was 8.64 µM; in [10], 11.9 µM.

Take `C=CCn1c(=O)c2cnc(Nc3ccc(N4CCN(C)CC4)cc3)nc2n1-c1cccc(C(C)(C)O)n1`: the GI50 in experiment [1] is 0.377 µM and 0.362 µM; in [2], 0.191 µM and 0.213 µM; in experiment [3], 0.456 µM and 1.9 µM; in [4], 0.218 µM and 0.295 µM; in [5], 1.41 µM and 1.06 µM; in experiment [6] it was 1.65 µM and 1.52 µM. Moreover, the GI50 in [7] was 0.48 µM and 0.589 µM; in experiment [8], 0.161 µM and 0.287 µM; in experiment [9], 0.251 µM and 0.237 µM; in experiment [10], 0.338 µM and 0.28 µM. Besides, the TGI in experiment [1] was 9.71 µM and > 10 µM; in experiment [2], 11.2 µM and > 5.86 µM; in experiment [3], 5.95 µM and > 7.68 µM; in [4], 1.27 µM and > 4.86 µM; in experiment [5], greater than 65.6 µM; in [6], 5.61 µM and 6.22 µM. For the same compound, the TGI is 14.4 µM and > 10 µM in [7]; 2.3 µM and 1.15 µM in [8]; 8.08 µM and > 3.11 µM in experiment [9]; 7.47 µM and > 10 µM in experiment [10].

Regarding `CCSc1nc(N)c(C#N)c(-c2ccco2)c1C#N`, the GI50 was 39.6 µM in [1]; 48.1 µM in [2]; 29.9 µM in [3]; 53.2 µM in experiment [4]; 22.3 µM in experiment [5]; 12.2 µM in experiment [6]. In addition, the GI50 is 47.7 µM in [7], 23.3 µM in [8], 53.3 µM in experiment [9] and 56.1 µM in experiment [10]. The TGI is greater than 100 µM in experiment [1]; greater than 100 µM in [2]; greater than 100 µM in experiment [3]; greater than 100 µM in [4]; greater than 100 µM in experiment [5]; 42.4 µM in experiment [6]. Moreover, the TGI was greater than 100 µM in experiment [7], 69.3 µM in experiment [8], greater than 100 µM in [9] and greater than 100 µM in experiment [10].

Take `CC1=C(C(=O)Nc2ccc(F)c(Cl)c2)C(c2ccccc2O)NC(=O)N1` (stereo not given): the GI50 in experiment [1] is greater than 100 µM; in experiment [2], 69.9 µM; in experiment [3] it was greater than 100 µM; in experiment [4], greater than 100 µM; in experiment [5], 58.8 µM; in [6] it was 46.1 µM. In addition, the GI50 is 94.5 µM in [7], greater than 100 µM in [8], greater than 100 µM in experiment [9] and 80.7 µM in experiment [10]. The TGI in [1], in experiment [2], in [3], in experiment [4], in experiment [5] and in experiment [6] was greater than 100 µM each time. In addition, the TGI in experiment [7], in experiment [8], in [9] and in experiment [10] was greater than 100 µM throughout.

As for `NNc1c2ccccc2nc2ccccc12`, the GI50 in experiment [1] was 6.2 µM; in experiment [2], 6.11 µM; in experiment [3] it was 4.26 µM; in experiment [4] it was 1.37 µM; in experiment [5] it was 2.34 µM; in experiment [6], 0.558 µM. Moreover, the GI50 in experiment [7] was 1.88 µM; in experiment [8], 3.73 µM; in [9], 6.91 µM; in experiment [10], 2.76 µM. Further, the TGI in experiment [1] was determined as 29.4 µM; in experiment [2], 21.8 µM; in experiment [3], 43 µM; in [4], 33 µM; in [5], 37.3 µM; in [6], 17.4 µM. Besides, the TGI in [7] was 14.9 µM; in experiment [8], 22.9 µM; in experiment [9], greater than 100 µM; in [10], 19.5 µM.

Regarding `C[C@H]1c2ccccc2CN1CCCOc1cc2c(cc1OCC1CC1)C1(CCCC1)C(N)=N2`, the GI50 in experiment [1] was 2.06 µM; in experiment [2], 0.932 µM; in [3], 1.02 µM; in experiment [4], 3.26 µM; in experiment [5], 1.69 µM; in [6], 1.01 µM. Besides, the GI50 in experiment [7] was 1.89 µM; in [8] it was 0.922 µM; in experiment [9], 4.84 µM; in experiment [10], 1.02 µM. In addition, the TGI turned out to be 8.2 µM in experiment [1]; 1.81 µM in experiment [2]; 2.9 µM in experiment [3]; 10.3 µM in [4]; 7.6 µM in experiment [5]; 3.13 µM in experiment [6]. Also, the TGI in experiment [7] was 6.71 µM; in experiment [8] it was 1.89 µM; in experiment [9], 10.7 µM; in [10], 3.04 µM.

On to `O=NN(CCCl)C(=O)NC1CCC(=O)NC1=O` (stereo not given), for which the TGI in [1] was 377 µM; in experiment [2], 905 µM; in [3], 583 µM; in experiment [4], 842 µM; in [5], greater than 1250 µM; in experiment [6], 617 µM. For the same compound, the TGI is 331 µM in experiment [7], 309 µM in experiment [8], greater than 1010 µM in experiment [9] and 1250 µM in experiment [10].
